In patent publication US12653832B2, “Methods for treating lung infections and inflammation” (BRIGHAM YOUNG UNIVERSITY, priority 2013, dated 2026):
Converted amounts (≈) assume the structure as drawn.

Key:
P. aeruginosa (PAO1) [1] = test: Animal model of lung infection, bacterial counts in lung tissue; type: in vivo, mice; conditions: for elimination of the bacterial burden: 80 mg/kg via nebulization; for reduction in bacterial burden: 80 mg/kg via nebulization four hours after infection
Procedure: In vivo studies were designed to allow observation of both tolerance for CSAs and effectiveness of the antimicrobial in reducing bacterial burden. An infection model was used in which mice were inoculated with P. aeruginosa (PAO1) intra-nasally (10^5 CFU) to establish an infection. […] Two doses were used: 40 and 80 mg/kg. […] After 24 h, the mice were euthanized, and lung tissues were homogenized. Bacterial counts were determined by serial dilution, plating on nutrient agar, incubation, and colony counting. As a comparator, tobramycin was administered via the same route, and P. aeruginosa counts were determined.
(§1) IL-6 was measured from kidney tissue specimens.

[2] = system: inflammatory cells around bronchioles in lungs; test: Murine lung histology in pneumonia model; type: in vivo, mice; conditions: 4 hours post challenge with Pseudomonas PA01
Procedure: In this experiment, mice were infected with 10^8 PA01 strain of Pseudomonas, representing a murine pneumonia model. […] The CSA treatment was administered 4 hours post challenge with Pseudomonas.

IL-6 = IL-6 levels in murine pneumonia model; type: in vivo, mice; conditions: inhaled, 40 and 80 mg/kg; IL-6 measured from kidney tissue specimens (FIG. 5)
Procedure: as §1

[3] = system: tobramycin-resistant P. aeruginosa strains; test: MIC against tobramycin resistant strains (cross-resistance); type: cell-based; conditions: seven tobramycin resistant P. aeruginosa strains (FIG. 3)
Excerpt: Tobramycin is commonly used in reducing the bacterial burden in the lungs of cystic fibrosis patients. However, resistance to tobramycin is often observed among P. aeruginosa isolates. Tobramycin resistance is typically achieved by acylation or phosphorylation of the primary amine groups in the antibiotic.
Similar studies can be conducted for other drug-resistant pathogenic strains following this standard experimental protocol.

P. aeruginosa (PAO1) [4] = test: MIC against infection-model strain; type: cell-based
P. aeruginosa = test: Drug combinations of CSAs and anti-pathogenic substances (synergy); type: cell-based
Procedure: Following the protocols outlined in Appl. Microbiol. Biotechnol., 2010 (September) pp. 251-63 and Chemotherapy, 2011 (November), Vol. 57, pp. 505-10, drug combinations involving CSAs and anti-pathogenic substances are performed.

Pseudomonas aeruginosa = test: Assessment of bacterial resistance by serial exposure, MIC; type: cell-based; conditions: serial passages (FIG. 2)
Excerpt: (§2) A central consideration in the development of novel antimicrobials is potential generation of bacterial resistance. […] See Pollard J E, et al. J. Antimicrob. Chemother. 2012, 67, 2665-2672 (describing experimental protocol).

Staphylococcus aureus = test: as above; type: cell-based; conditions: after 30 serial passages
Excerpt: as §2

reduction of the MIC of erythromycin (P. aeruginosa; CSA-13 administered with erythromycin) [%] | SMILES | drop in bacterial counts (P. aeruginosa (PAO1) [1]; 40 mg/kg via nebulization four hours after infection, lung counts after 24 h) | elimination of the bacterial burden (P. aeruginosa (PAO1) [1]) [%] | reduction in bacterial burden (P. aeruginosa (PAO1) [1]; lung counts after 24 h) | Pseudomonas load (P. aeruginosa (PAO1) [1]; inhaled, 40 and 80 mg/kg, murine pneumonia model (FIG. 5)) | inflammatory cells in lung histology ([2]; 40 mg/kg dose) | inflammatory cells in lung histology ([2]; 80 mg/kg dose) | IL-6 levels (IL-6) | susceptibility of tobramycin resistant strains [3] | MIC (P. aeruginosa (PAO1) [4]) [µg/mL] | synergy (P. aeruginosa; combined with ciprofloxaxin) | synergy (P. aeruginosa; combined with tobramycin) | synergistic result (P. aeruginosa; in combination with colistin, against P. aeruginosa) [%] | MIC at which the rise appeared to level off (Pseudomonas aeruginosa) [µg/mL] | change in Minimum Inhibitory Concentration (MIC) (Staphylococcus aureus)
– | CCCCCCCCNCCC[C@@H](C)[C@H]1CC[C@H]2[C@@H]3[C@H](OCCCN)C[C@@H]4C[C@H](OCCCN)CC[C@]4(C)[C@H]3C[C@H](OCCCN)[C@]12C [CSA-13] | two | 99.99 | greater than four | reduced | substantial reduction of inflammatory cells | even greater reduction in inflammatory cells | reduced | all strains were comparably susceptible | 2.5 (≈ 3.69 µM) | Additional synergies were observed | Additional synergies were observed | 54 | ~20 (≈ 29.5 µM) | no significant change
92 | CC[C@H]1OC(=O)[C@H](C)[C@@H](O[C@H]2C[C@@](C)(OC)[C@@H](O)[C@H](C)O2)[C@H](C)[C@@H](O[C@@H]2O[C@H](C)C[C@H](N(C)C)[C@H]2O)[C@](C)(O)C[C@@H](C)C(=O)[C@H](C)[C@@H](O)[C@]1(C)O [erythromycin, reference compound] | – | – | – | – | – | – | – | – | – | – | – | – | – | –
– | NC[C@H]1O[C@H](O[C@H]2[C@H](O)[C@@H](O[C@H]3O[C@H](CO)[C@@H](O)[C@H](N)[C@H]3O)[C@H](N)C[C@@H]2N)[C@H](N)C[C@@H]1O [tobramycin, reference compound] | – | 99.99 | greater than four | – | – | – | – | varied significantly | – | – | – | – | – | –
